Experimental findings from patent US20100160335A1, “PYRIDAZINONE DERIVATIVE AND PDE INHIBITOR CONTAINING THE SAME AS ACTIVE INGREDIENT” (KYORIN PHARMACEUTICAL CO., LTD., priority 2007, published 2010) are described below.

Where two headings read alike, the source gives them in different places. A value given as a limit tells only on which side of the number the result lay.

Assay [1] addresses T1, PDE3A catalytic domain (PDE3Acat) (Homo sapiens, UniProt Q14432).
T1 construct: made in house; host or cells: Sf9 insect cells (baculovirus, Bac-to-Bac / Gateway)
The experiment in a line: Phosphodiesterase inhibitory activity, PDE3 ([3H]cAMP, recombinant enzyme). Type of assay: biochemical. Conditions: 30° C., 20 minutes, read-out: IC50(μmol/L) PDE3.

Assay [2] has as its system histamine-induced bronchoconstriction in guinea pigs. The experiment in a line: Histamine-induced bronchoconstriction reaction in guinea pigs. Type of assay: in vivo. Particulars: Cavia porcellus, iv, 0.5 min, guinea pig, measured 30 seconds after administration, read-out: Inhibition rate (histamine-induced bronchoconstriction); for inhibition in vivo at 0.3 mg/kg: compound 0.3 mg/kg, i.v.; for inhibition in vivo at 0.1 mg/kg: compound 0.1 mg/kg, i.v. (values in [ ]). On the procedure:
Guinea pigs were anesthetized with pentobarbital (30 mg/kg, i.p.). A cannula for intravenous administration was inserted into the left external jugular vein, a cannula for collecting blood and measuring blood pressure was inserted into the right internal carotid artery, and a tracheal cannula was inserted into the trachea. The guinea pigs were maintained on artificial respiration under the conditions of 60 times/min and 10 mL/kg/stroke. The airflow from the side branch of the tracheal cannula was measured by a bronchospasm transducer (Ugo-Basile) and recorded on a computer via Power Lab (ADInstruments Japan). The guinea pigs were immobilized with gallamine (10 mg/kg, i.v.), and histamine (12.5 μg/kg, i.v.) was administered at 10-minute intervals. After the histamine-induced bronchoconstriction became stable, the compound (0.3 mg/kg, i.v.) was administered. The histamine-induced bronchoconstriction reaction was measured 30 seconds after the compound administration to examine the bronchoconstriction inhibitory activity of the compound. The bronchoconstriction was recorded as the airflow value, and the results were represented by the ratio of the maximum value of the histamine- induced airflow 30 seconds after the administration to the maximum value of the airflow before the administration. Also, the test compounds dissolved in DMSO were used. Further, the indications were as follows: inhibition rate≧90% (+++), 90%>inhibition rate≧80% (++), and 80%>inhibition rate≧70% (+). [ ] means the results in the case of 0.1 mg/kg, i.v.

Assay [3] relates to LPS acute inflammation model in rats. The experiment in a line: LPS acute inflammation model in rats (total leukocytes in BALF). Type of assay: in vivo. Conditions: BALF 3 hours after LPS; for inhibition in vivo at 1 mg/kg: Rattus norvegicus, Leukocyte, po, 3 h, read-out: Inhibition rate (total number of leukocytes in BALF). As to the method:
1 mg/kg of the compound was orally administered to rat one hour before inhalation of a lipopolysaccharide from E. coli serotype 055:B5 (LPS), and the rat was made to inhale 50 mL of the LPS solution nebulized using a nebulizer for 30 minutes. Then, 3 hours after the LPS inhalation, the rat was euthanized with 20% urethane (5 ml/rat, i.p.). 5 ml of physiological saline for bronchoalveolar lavage was injected into the bronchial tubes and alveoli through the airway, and the bronchial tubes and alveoli were washed three times using a 5 mL syringe. This operation was repeated twice, and the solution was collected as bronchoalveolar lavage fluid (BALF). The collected BALF was centrifuged at 1200 rpm and 4° C. for 10 minutes (Hirtachi; himac CR 5 DL). The pellet was re-suspended in 10 mL of a 0.1% bovine serum albumin-physiological saline, and an equivalent amount of Turk's solution was added thereto to stain leukocytes. The total number of leukocytes was counted under a microscope to calculate the inhibition rate. Further, the indications were as follows: inhibition rate≧90% (++) and 90%>inhibition rate≧50% (+). [ ] means the results of the drug administration after fasting overnight.

The target in a further assay is T2, PDE4Bcat (Homo sapiens, UniProt Q07343).
T2 construct: made in house; host or cells: Sf9 insect cells (baculovirus, Bac-to-Bac / Gateway)
T2 sequence (Q07343 330-659 limits assumed): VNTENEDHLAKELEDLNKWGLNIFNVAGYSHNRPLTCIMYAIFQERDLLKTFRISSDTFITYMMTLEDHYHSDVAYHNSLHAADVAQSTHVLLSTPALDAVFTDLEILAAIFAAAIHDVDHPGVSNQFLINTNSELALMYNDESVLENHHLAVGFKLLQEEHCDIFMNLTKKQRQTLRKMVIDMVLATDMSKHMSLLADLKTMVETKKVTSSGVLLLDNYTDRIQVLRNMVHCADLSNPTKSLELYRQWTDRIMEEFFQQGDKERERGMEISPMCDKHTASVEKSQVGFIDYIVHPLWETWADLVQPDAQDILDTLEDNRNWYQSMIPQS
The experiment in a line: Phosphodiesterase inhibitory activity, PDE4 ([3H]cAMP, recombinant enzyme). Type of assay: biochemical. Particulars: 30° C., 20 minutes, read-out: IC50(μmol/L) PDE4.

Where [4] appears, read: 1 mg/kg orally after fasting overnight (values in [ ]), one hour before LPS inhalation.
[5] abbreviates: 1 mg/kg orally one hour before LPS inhalation.

T1 sequence (Q14432 674-1093 limits assumed): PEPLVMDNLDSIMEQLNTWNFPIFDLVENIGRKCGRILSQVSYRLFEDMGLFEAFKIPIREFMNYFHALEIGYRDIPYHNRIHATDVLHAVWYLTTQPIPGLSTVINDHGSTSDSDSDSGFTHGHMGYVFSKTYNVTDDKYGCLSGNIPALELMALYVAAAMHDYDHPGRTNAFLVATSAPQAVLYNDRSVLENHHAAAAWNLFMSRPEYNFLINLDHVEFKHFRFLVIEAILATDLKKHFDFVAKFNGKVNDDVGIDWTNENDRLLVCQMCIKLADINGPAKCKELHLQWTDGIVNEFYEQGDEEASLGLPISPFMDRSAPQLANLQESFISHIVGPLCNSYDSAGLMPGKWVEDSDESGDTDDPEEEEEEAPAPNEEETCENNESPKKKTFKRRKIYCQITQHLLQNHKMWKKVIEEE

As to `CCc1ccc2c(-c3ccc(=O)n(CCCCOc4ccc(C5=NNC(=O)CC5C)c(F)c4F)n3)ccc(OC)c2n1` (single isomer, unassigned; (-)) [Example 323, (−)-6-(2-ethyl-8-methoxyquinolin-5-yl)-2-[4-[2,3-difluoro-4-(4-methyl-6-oxo-1,4,5,6-tetrahydropyridazin-3-yl)phenoxy]butyl]-2H-pyridazin-3-one], the IC50 (in assay [1]; on PDE4Bcat) was < 0.1 µmol/L in each case. Besides, the inhibition in vivo at 0.3 mg/kg in assay [2] fell in the range of 70 to 80%. Further, the “Inhibition rate (total number of leukocytes in BALF)” value in assay [3] (rat, 1 mg/kg orally after fasting overnight (values in [ ]), one hour before LPS inhalation, 1 mg/kg) was “[++] (inhibition rate≧90% (++))”.

For the compound `COc1ccc(-c2ccc(=O)n(CCCCOc3ccc(C4=NNC(=O)CC4)c(F)c3F)n2)c2ccc(C)nc12` [Example 271, 2-[4-[2,3-Difluoro-4-(6-oxo-1,4,5,6-tetrahydropyridazin-3-yl)phenoxy]butyl]-6-(8-methoxy-2-methylquinolin-5-yl)-2H-pyridazin-3-one], the IC50 (in assay [1]; at PDE4Bcat) was < 0.1 µmol/L in each case. For the same compound, the inhibition in vivo at 0.3 mg/kg in assay [2] was ≥ 90%. Besides, in assay [3] (setting [4]), the inhibition in vivo at 1 mg/kg was 50 to 90%.

`CCc1ccc2c(-c3ccc(=O)n(CCCCOc4ccc(C5=NNC(=O)CC5C)c(F)c4F)n3)ccc(OC)c2n1` (centres unmarked) [Example 289, 6-(2-Ethyl-8-methoxyquinolin-5-yl)-2-[4-[2,3-difluoro-4-(4-methyl-6-oxo-1,4,5,6-tetrahydropyridazin-3-yl)phenoxy]butyl]-2H-pyridazin-3-one]: the IC50 (in assay [1]; on PDE4Bcat) was < 0.1 µmol/L throughout. For the same compound, the inhibition in vivo at 0.3 mg/kg in assay [2] was ≥ 90%. Also, the inhibition in vivo at 1 mg/kg in assay [3] (setting [5]) was 50 to 90%.

On to `CCc1ccc2c(C3=NN(CCCCOc4ccc(C5=NNC(=O)CC5)c(F)c4F)C(=O)CC3C)ccc(OC)c2n1` (centres unmarked) [Example 299, 6-(2-Ethyl-8-methoxyquinolin-5-yl)-5-methyl-2-[4-[2,3-difluoro-4-(6-oxo-1,4,5,6-tetrahydropyridazin-3-yl)phenoxy]butyl]-4,5-dihydro-2H-pyridazin-3-one], for which the IC50 (in assay [1]; on PDE4Bcat) was < 0.1 µmol/L each time. For the same compound, in assay [2], the inhibition in vivo at 0.1 mg/kg was ≥ 90%. Besides, the inhibition in vivo at 1 mg/kg in assay [3] (setting [4]) is 50 to 90%.

Take `CCc1ccc2c(C3=NN(CCCCOc4ccc(C5=NNC(=O)CC5C)cc4)C(=O)CC3C)ccc(OC)c2n1` (centres unmarked) [Example 312, 6-(2-Ethyl-8-methoxyquinolin-5-yl)-5-methyl-2-[4-[4-(4-methyl-6-oxo-1,4,5,6-tetrahydropyridazin-3-yl)phenoxy]butyl]-4,5-dihydro-2H-pyridazin-3-one]: the IC50 in assay [1] is 0.1 to 1 µmol/L; on PDE4Bcat, < 0.1 µmol/L. In assay [2], the inhibition in vivo at 0.1 mg/kg fell in the range of 70 to 80%. The inhibition in vivo at 1 mg/kg in assay [3] (setting [5]) was 50 to 90%.

`COc1ccc(C2=NN(CCCCOc3ccc(C4=NNC(=O)CC4C)cc3)C(=O)CC2C)c2[nH]c(C(F)(F)F)nc12` (centres unmarked) [Example 314, 6-(4-Methoxy-2-trifluoromethyl-1H-benzimidazol-7-yl)-5-methyl-2-[4-[4-(4-methyl-6-oxo-1,4,5,6-tetrahydropyridazin-3-yl)phenoxy]butyl]-4,5-dihydro-2H-pyridazin-3-one]: the IC50 (in assay [1]; at PDE4Bcat) was < 0.1 µmol/L in each case. Also, the inhibition in vivo at 0.3 mg/kg in assay [2] lay within 80 to 90%. Also, the inhibition in vivo at 1 mg/kg in assay [3] (setting [5]) fell in the range of 50 to 90%.

For the compound `COc1ccc(-c2ccc(=O)n(CCCCOc3ccc(C4=NNC(=O)CC4C)c(F)c3F)n2)c2cccnc12` (centres unmarked) [Example 319, 2-[4-[2,3-Difluoro-4-(4-methyl-6-oxo-1,4,5,6-tetrahydropyridazin-3-yl)phenoxy]butyl]-6-(8-methoxyquinolin-5-yl)-2H-pyridazin-3-one], the values for the IC50 (in assay [1]; at PDE4Bcat) were < 0.1 µmol/L and 0.1 to 1 µmol/L, respectively. Also, the inhibition in vivo at 0.1 mg/kg in assay [2] was ≥ 90%. In assay [3] (setting [4]), the inhibition in vivo at 1 mg/kg fell in the range of 50 to 90%.

With `COc1ccc(-c2ccc(=O)n(CCCCOc3ccc(C4=NNC(=O)CC4)c(F)c3F)n2)c2cccnc12` [Example 320, 2-[4-[2,3-Difluoro-4-(6-oxo-1,4,5,6-tetrahydropyridazin-3-yl)phenoxy]butyl]-6-(8-methoxyquinolin-5-yl)-2H-pyridazin-3-one], the IC50 (in assay [1]; at PDE4Bcat) was < 0.1 µmol/L in each case. Moreover, the inhibition in vivo at 0.3 mg/kg in assay [2] is ≥ 90%. In assay [3] (setting [4]), the inhibition in vivo at 1 mg/kg is 50 to 90%.
